Experimental data from patent US5043332A, “Novel 11β-substituted -19-nor-steriods” (priority 1981, dated 1991).

Experiments:
[1] = target: T1, Progestogen receptor of the uterus of rabbits (Oryctolagus cuniculus, UniProt P06186); assay: Progestogen receptor binding (displacement of tritiated product R); design: species or system rabbit; conditions: conclusion
T1 construct: The uterus was removed, weighed and homogenized at 0° C; from tissue; host or cells: rabbit uterus, 105,000 g supernatant (estradiol-primed immature rabbits)
T1 sequence (P06186 1-930): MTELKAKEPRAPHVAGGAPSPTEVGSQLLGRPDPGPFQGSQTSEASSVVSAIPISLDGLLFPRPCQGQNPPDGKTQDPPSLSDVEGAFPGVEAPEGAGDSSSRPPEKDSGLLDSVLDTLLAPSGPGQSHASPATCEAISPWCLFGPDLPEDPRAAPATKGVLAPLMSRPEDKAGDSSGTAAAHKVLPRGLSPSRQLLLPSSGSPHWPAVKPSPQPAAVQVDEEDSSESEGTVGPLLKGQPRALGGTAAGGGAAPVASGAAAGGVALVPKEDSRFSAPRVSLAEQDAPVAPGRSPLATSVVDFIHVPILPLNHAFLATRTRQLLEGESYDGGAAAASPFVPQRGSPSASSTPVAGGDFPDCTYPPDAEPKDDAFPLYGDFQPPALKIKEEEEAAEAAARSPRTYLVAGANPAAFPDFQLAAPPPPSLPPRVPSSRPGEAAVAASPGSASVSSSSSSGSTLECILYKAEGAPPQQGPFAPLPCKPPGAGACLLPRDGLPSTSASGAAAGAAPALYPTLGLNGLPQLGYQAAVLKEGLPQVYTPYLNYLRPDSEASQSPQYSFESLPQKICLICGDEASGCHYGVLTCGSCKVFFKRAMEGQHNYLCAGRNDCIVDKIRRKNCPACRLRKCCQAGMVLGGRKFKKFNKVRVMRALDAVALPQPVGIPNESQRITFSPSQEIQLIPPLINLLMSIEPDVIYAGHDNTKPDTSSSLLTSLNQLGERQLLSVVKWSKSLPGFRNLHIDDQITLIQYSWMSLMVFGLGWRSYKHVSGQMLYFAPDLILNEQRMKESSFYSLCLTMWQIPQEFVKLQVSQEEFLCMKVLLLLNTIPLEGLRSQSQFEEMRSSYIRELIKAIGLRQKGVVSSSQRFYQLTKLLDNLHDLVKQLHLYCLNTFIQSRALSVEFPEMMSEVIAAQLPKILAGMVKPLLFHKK
Description: C. Progestogen receptor of the uterus of rabbits
Immature rabbits weighing about 1 kg received a cutaneous application of 25 μg of estradiol and the animals were killed 5 days later. The uterus was removed, weighed and homogenized at 0° C. with a polytetrafluoroethylene-glass Potter, in a buffered TS solution [Tris 10. mM, 0.25M of saccharose, HCl-pH of 7.4] with 1 g of tissue per 50 ml of TS. […] The concentration of tied tritiated R (B) was then measured for each incubate by the technique of adsoprtion on carbon-dextran.
(§1) The calculation of the relative affinity of […] (ARL) was identical for all of the above receptor tests. One traced the following two curves: the percentage of tied tritiated hormone B/T as a function of the logarithm of the cold hormone concentration and B/T as a function of the logarithm of the concentration of the cold test product. One determined the line of the equation. [formula]
(§2) The intersection of the I50 line and the curves permits one to determine the concentrations of the cold hormone of the reference (CH) and the cold test compound (CX) which inhibit by 50% the tieing of tritiated hormone with the receptor. The relative affinity of tieing (ARL) of the test product was determined by the equation: [formula]

[2] = target: T2, Androgen receptor of prostate of rats (Rattus norvegicus, UniProt P15207); assay: Androgen receptor binding (displacement of tritiated product P); conditions: conclusion
T2 construct: The prostates were removed, weighed and homogenized at 0° C; from tissue; host or cells: rat prostate, 105,000 g supernatant (castrated male Sprague-Dawley rats)
T2 sequence (P15207 1-902): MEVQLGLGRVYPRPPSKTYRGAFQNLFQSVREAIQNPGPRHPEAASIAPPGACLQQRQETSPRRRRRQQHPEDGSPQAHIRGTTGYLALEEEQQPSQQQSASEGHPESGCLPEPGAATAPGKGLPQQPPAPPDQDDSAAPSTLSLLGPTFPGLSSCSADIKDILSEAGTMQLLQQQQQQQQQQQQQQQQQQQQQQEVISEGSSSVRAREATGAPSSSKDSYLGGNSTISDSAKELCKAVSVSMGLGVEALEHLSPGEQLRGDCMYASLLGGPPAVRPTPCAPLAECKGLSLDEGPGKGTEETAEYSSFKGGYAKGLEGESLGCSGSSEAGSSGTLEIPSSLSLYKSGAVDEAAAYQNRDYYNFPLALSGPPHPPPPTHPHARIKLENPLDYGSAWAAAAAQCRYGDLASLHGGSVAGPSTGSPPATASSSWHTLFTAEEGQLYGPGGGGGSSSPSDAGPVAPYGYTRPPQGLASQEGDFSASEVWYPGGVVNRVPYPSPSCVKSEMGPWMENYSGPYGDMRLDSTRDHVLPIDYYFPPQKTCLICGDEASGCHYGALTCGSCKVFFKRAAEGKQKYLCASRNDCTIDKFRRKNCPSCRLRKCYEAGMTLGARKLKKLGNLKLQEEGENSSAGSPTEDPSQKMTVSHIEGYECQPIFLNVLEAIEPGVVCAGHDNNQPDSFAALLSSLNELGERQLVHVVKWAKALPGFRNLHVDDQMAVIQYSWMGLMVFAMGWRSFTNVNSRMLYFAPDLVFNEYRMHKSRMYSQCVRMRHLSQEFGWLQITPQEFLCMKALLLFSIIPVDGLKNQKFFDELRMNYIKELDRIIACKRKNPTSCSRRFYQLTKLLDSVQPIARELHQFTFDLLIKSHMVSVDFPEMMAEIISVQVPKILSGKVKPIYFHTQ
Description: B. Androgen receptor of prostate of rats
Male Sprague-Dawley EPOS rats weighing of 160 to 200 g were castrated and 24 hours later, the animals were killed. The prostates were removed, weighed and homogenized at 0° C. with a polytetrafluoroethylene-glass Potter with a buffered TS solution (Tris, 10 mM, 0.25M Saccharose, HCl-pH of 7.4) using 1 g of tissue per 5 ml of TS. The homogenate was then ultracentrifuged at 105,000 g for 60 […] (T) of product P or 17α-methyl-Δ^4,9,11 -estratriene-17β-ol-3-one in the presence of increasing concentration (0-1,000×10^-9 M) of either cold P, cold testosterone or the test compound. The concentration of tied tritiated (B) was measured for each incubate by the technique of adsorption on carbon-dextran.
as §1, §2

[3] = tested on: thymocytes of surrenalectomized rats; assay: Antiglucocorticoidal activity, incorporation of tritiated uridine in thymocytes; format: cell-based; conditions: for opposition to the effect of dexamethasone on tritiated uridine incorporation (in words): with 5×10^-8 M dexamethasone
Description: III. Antiglucocorticoidal Activity
The test used was that of Dausse et al [Molecular Pharmacology, Vol. 13 (1977), p. 948-955] entitled "The relationship between glucocorticoid structure and effects upon thymocytes" for […] thymocytes. The thymocytes of surrenalectomized rats were incubated at 37° C. for 3 hours in a nutritive medium containing 5×10^-8 M of dexamethasone in the presence or absence of the test compound at different concentrations. Tritiated uridine was added and incubation was continued for one hour. The incubates were cooled and treated with a 5% trifluoroacetic acid solution and the mixture was filtered with Whatman GF/A paper. The filter was washed 3 times with a 5% trifluoroacetic acid solution and retained radioactivity on the filter was determined.

| Compound | affinity for progestogen receptors (in words) [1] | affinity for androgen receptors (in words) [2] | inhibition at 1 µM ([3]; Rattus norvegicus, Thymocyte, second table, 5 × 10^-8 M dexamethasone + test product 10^-6 M, read-out: % of inhibition of effect of Dexamethasone) [%] | inhibition at 0.1 µM ([3]; Rattus norvegicus, Thymocyte, second table, 5 × 10^-8 M dexamethasone + test product 10^-7 M, read-out: % of inhibition of effect of Dexamethasone) [%] | inhibition at 0.01 µM ([3]; Rattus norvegicus, Thymocyte, second table, 5 × 10^-8 M dexamethasone + test product 10^-8 M, read-out: % of inhibition of effect of Dexamethasone) [%] | opposition to the effect of dexamethasone on tritiated uridine incorporation (in words) [3] |
| --- | --- | --- | --- | --- | --- | --- |
| C#CC[C@]1(O)CC[C@H]2[C@@H]3CCC4=CC(=O)CCC4=C3[C@@H](c3ccc(N(C)C)cc3)C[C@@]21C [Example 31, 11β-[4-(N,N-dimethylamino)-phenyl]-17α-(prop-2-ynyl)-Δ^4,9-estradiene-17β-ol-3-one] | very remarkable affinity | slightly moderate affinity | 99 | 60 | 28 | opposed this effect |
| CC#C[C@]1(O)CC[C@H]2[C@@H]3CCc4cc(O)ccc4[C@H]3[C@@H](c3ccc(N(C)C)cc3)C[C@@]21C [Example 2, 11β-(4-dimethylaminophenyl)-17α-(prop-1-ynyl)-Δ^1,3,5(10) -estratriene-3,17β-diol] | very remarkable affinity | slightly moderate affinity |  |  |  | opposed this effect |
